Experimental data as given in the METLIN SMRT retention time set (Domingo-Almenara et al. 2019).

assay: gradient 5% acetonitrile 3 min, to 50% in 2 min, to 85% in 15 min, held 3 min, 100 µL/min; details: column: Zorbax Extend-C18 2.1 x 50 mm; eluents: water / acetonitrile, 0.1% formic acid
Summary of the method: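 Values are retention times taken from adduct peaks that software picked and an analyst inspected. The pure standards were run as mixtures of ~100 molecules on HPLC linked to a quadrupole time-of-flight mass spectrometer, in positive and negative ionization mode. A Zorbax Extend-C18 column (2.1 × 50 mm, 1.8 μm) was used at 100 μL/min with water and acetonitrile, each including 0.1% formic acid.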

SMILES | RP-LC retention time
N#CCSc1nnc2n(CCC(=O)NC3CCCCC3)c(=O)c3ccccc3n12 | 687 s
COc1cccc(CNC(=O)C2(C)CCCN(C(=O)Nc3ccc(C)cc3)C2)c1 (centres undefined) | 898 s
Cc1ccc(CN2CCC(n3c(C)cnc3-c3cccnc3)C2)s1 (centres undefined) | 546 s
O=C(C1CCCN(c2nn3c(=O)c4c(nc3s2)CCCC4)C1)N1CCC2(CC1)OCCO2 (centres undefined) | 674 s
CC(Oc1ccc(=O)n(-c2ccc(F)cc2)n1)C(=O)Nc1ccc(Cl)cc1 (centres undefined) | 845 s
Cc1nc2cccnc2n1C1CCN(C(=O)Nc2ccc3c(c2)CCC3)C1 (centres undefined) | 620 s
COC(=O)Cc1c(C(=O)OC)nnn1-c1ccc(OC)cc1 | 862 s
COc1cccc(-c2cn3ccn(-c4ccc(Br)cc4)c(=O)c3n2)c1 | 866 s
NC(=O)c1nnn(Cc2cccc([N+](=O)[O-])c2)c1N | 616 s
Cc1ccc(N2C(=O)CN(S(=O)(=O)c3ccc(C)cc3)CC2(C)C(=O)NC2CCCC2)cc1 (centres undefined) | 983 s
CCOc1ccc(-c2csc(Cc3nc(-c4ccc(OCC)cc4)no3)n2)cc1 | 1300 s
Cc1nc(-c2ccc3c(c2)n(CC(=O)NC2CCCC2)c(=O)n3C(C)C)no1 | 780 s
COc1cccc(-c2ccc(=O)n(CCc3nc(-c4ccc(C)cc4)no3)n2)c1 | 999 s
CN(CCc1noc(-c2ccc(F)cc2)n1)C(=O)Nc1ccc(F)cc1F | 874 s
Cc1ccc(NC(=O)N2CCCC(C)(C(=O)NCc3ccc(F)cc3)C2)c(C)c1 (centres undefined) | 949 s
CC1CCN(CCCNC(=O)C2CCc3sc(C(=O)N4CCOCC4)cc3C2)CC1 (centres undefined) | 596 s
CCOc1cc(=O)n2c(c1C(=O)N1CCN(C3CCCCC3)CC1)CCCCC2 | 590 s
CC1(C(=O)NCc2ccc(Cl)cc2)CN(S(C)(=O)=O)CC(=O)N1c1ccc(F)cc1 (centres undefined) | 800 s
CCc1nc(-c2csc(S(=O)(=O)N3CCCC(C(=O)Nc4ccc(C)c(C)c4)C3)c2)no1 (centres undefined) | 1110 s
CC1(C)CC(=O)c2cn(-c3ccc(F)cc3)c(=O)c(C(=O)N3CCN(c4ccccn4)CC3)c2C1 | 636 s
O=C1NCCCn2cc(S(=O)(=O)NCc3ccc(F)cc3Cl)cc21 | 686 s

More lines, now with the values ahead:

RP-LC retention time | SMILES
666 s | O=C(c1ccc(=O)[nH]c1)N1CC(c2nc(-c3ccccn3)no2)C1
1070 s | CCN(c1ccccc1)c1nc(Cl)nc2c1cnn2C
735 s | CCn1cnc(S(=O)(=O)N2CCCC(C(=O)Nc3ccccc3F)C2)c1 (centres undefined)
586 s | COc1ccc2[nH]c(=O)c(CCC(=O)NCCCN3CCCCC3)cc2c1
1140 s | COc1ccccc1/C=C1\Cc2ccccc2C1=O
764 s | CCCCNC(=O)c1cccc2c1CCN2C(=O)C1CC1
840 s | CCCc1sc(NC(=O)Cn2nc3c(cc2=O)CCCC3)nc1C(=O)OC
718 s | COc1cc([C@@H]2c3cc4c(cc3[C@H](O)[C@@H](CO)[C@@H]2C(=O)NCc2cc(F)ccc2F)OCO4)cc(OC)c1OC
895 s | CCCc1nc(-c2c(C)cc(C)nc2NC(=O)c2ccc(F)cc2F)no1
630 s | O=C(Nc1ccc2cn[nH]c2c1)C1CN(c2nc3ccccc3s2)C1
662 s | CNC(=O)c1cccc(C(=O)N(C)c2ccccc2)n1
1040 s | CCn1cc(-c2nc(CC(=O)Nc3cc(C)ccc3OC)cs2)c2cccnc21
996 s | Cc1ccc(Sc2nccnc2N2CCCC(C(=O)NC(C)C)C2)cc1 (centres undefined)
1240 s | COc1ccccc1-c1nc(Cn2nnc(-c3nc(-c4ccc(C)c(C)c4)no3)c2C)c(C)o1
522 s | O=C(NCC(c1cccnc1)N1CCOCC1)c1ccccc1 (centres undefined)
620 s | COc1ccc(C2=C(C)C(N3CCN(c4ccccn4)CC3)=NS2(=O)=O)cc1
908 s | CCCS(=O)(=O)N1CCCc2cc(NC(=O)Nc3cccc(OC)c3OC)ccc21
935 s | COc1ccc(CNC(=O)C2(C)CCN(C(=O)Nc3ccc(C)c(Cl)c3)CC2)cc1
702 s | Cc1cc(-c2ccc(S(=O)(=O)N3CCC(C(=O)NCC4CC4)CC3)o2)n[nH]1
802 s | O=C(CCCSc1ccc(NC(=O)c2ccc(F)cc2)nn1)NCc1cccs1
1120 s | O=c1c2cc(-c3ccc(F)cc3)nn2ccn1Cc1ccccc1Cl
955 s | Cc1cccc(S(=O)(=O)N2CCc3c(c(-c4nnc(-c5ccc(F)cc5)o4)nn3C)C2)c1
779 s | CS(=O)(=O)N(C1CCOCC1)C1CCN(S(=O)(=O)Cc2ccccc2)CC1
